Test results as given in paper PMC12217109, “Development of novel benzamide class I selective lysine deacetylase inhibitors as potent anticancer agents” (Journal of Enzyme Inhibition and Medicinal Chemistry, 2025).

Legend:
HeLa nuclear KDACs = assay: Fluor-de-Lys HDAC fluorometric activity assay with HeLa nuclear extract; format: biochemical; details: for IC50: HeLa nuclear extract, up to 20 µM, read-out: HDAC Inhibition IC50; for IC20: concentration inhibiting HDAC activity by 20%, read-out: HDAC Inhibition IC20
Procedure: Total zinc-dependent KDAC (classes I, II and IV) activity was measured using the Fluor-de-Lys^TM HDAC fluorometric activity assay kit (BioMol, Exeter, UK), as per manufacturers protocol. Briefly, HeLa nuclear extract, potential inhibitor (5 nM–20 μM) and assay buffer were incubated in a 96-well fluorometric plate at 37 °C for 15 min. Acetylated substrate (100 μM) was added and the mixture incubated at 37 °C for a further 20 min. The developer was added and the mixture incubated at 37 °C for a further 15 min. Fluorescence was measured using a microplate reader (λex = 360 nm, λem = 460 nm). Percentage KDAC activity and thus KDAC inhibition was determined by quantification of fluorescence obtained in the presence versus absence of the respective inhibitor.

786-0 = assay: NCI-60 cytotoxicity screen; format: cell-based; details: Homo sapiens, NCI-60, 48 h, renal
Excerpt: (§1) Compounds 3–7 were submitted to the US National Cancer Institute (NIH, Bethesda, Maryland) for screening against the NCI-60 panel of human cancer cell lines, as per standard protocol.

A549 = assay: NCI-60 cytotoxicity screen; format: cell-based; details: Homo sapiens, NCI-60, 48 h, NSCLC
Excerpt: as §1

ACHN = assay: NCI-60 cytotoxicity screen; format: cell-based; details: Homo sapiens, NCI-60, 48 h, renal
Excerpt: as §1

BT 549 = assay: NCI-60 cytotoxicity screen; format: cell-based; details: Homo sapiens, NCI-60, 48 h, breast
Excerpt: as §1

CAKI-1 = assay: NCI-60 cytotoxicity screen; format: cell-based; details: Homo sapiens, NCI-60, 48 h, renal
Excerpt: as §1

COLO205 = assay: NCI-60 cytotoxicity screen; format: cell-based; details: Homo sapiens, COLO 205; NCI-60, 48 h, colon
Excerpt: as §1

DU-145 = assay: NCI-60 cytotoxicity screen; format: cell-based; details: Homo sapiens, NCI-60, 48 h, prostate
Excerpt: as §1

EKVX = assay: NCI-60 cytotoxicity screen; format: cell-based; details: Homo sapiens, NCI-60, 48 h, NSCLC
Excerpt: as §1

H23 = assay: NCI-60 cytotoxicity screen; format: cell-based; details: Homo sapiens, NCI-60, 48 h, NSCLC
Excerpt: as §1

H460 = assay: NCI-60 cytotoxicity screen; format: cell-based; details: Homo sapiens, NCI-60, 48 h, NSCLC
Excerpt: as §1

H522 = assay: NCI-60 cytotoxicity screen; format: cell-based; details: Homo sapiens, NCI-60, 48 h, NSCLC
Excerpt: as §1

HCT116 = assay: NCI-60 cytotoxicity screen; format: cell-based; details: Homo sapiens, HCT-116; NCI-60, 48 h, colon
Excerpt: as §1

HCT15 = assay: NCI-60 cytotoxicity screen; format: cell-based; details: Homo sapiens, HCT-15; NCI-60, 48 h, colon
Excerpt: as §1

HL-60 = assay: NCI-60 cytotoxicity screen; format: cell-based; details: Homo sapiens, NCI-60, 48 h, leukaemia
Excerpt: as §1

HOP-62 = assay: NCI-60 cytotoxicity screen; format: cell-based; details: Homo sapiens, NCI-60, 48 h, NSCLC
Excerpt: as §1

HS 578 T = assay: NCI-60 cytotoxicity screen; format: cell-based; details: Homo sapiens, NCI-60, 48 h, breast
Excerpt: as §1

IGROV-1 = assay: NCI-60 cytotoxicity screen; format: cell-based; details: Homo sapiens, NCI-60, 48 h, ovarian
Excerpt: as §1

KM12 = assay: NCI-60 cytotoxicity screen; format: cell-based; details: Homo sapiens, NCI-60, 48 h, colon
Excerpt: as §1

LOX IMVI = assay: NCI-60 cytotoxicity screen; format: cell-based; details: Homo sapiens, NCI-60, 48 h, melanoma
Excerpt: as §1

M14 = assay: NCI-60 cytotoxicity screen; format: cell-based; details: Homo sapiens, NCI-60, 48 h, melanoma
Excerpt: as §1

MCF-7 = assay: NCI-60 cytotoxicity screen; format: cell-based; details: Homo sapiens, MCF7; NCI-60, 48 h, breast
Excerpt: as §1

MDA-MB-435 = assay: NCI-60 cytotoxicity screen; format: cell-based; details: Homo sapiens, NCI-60, 48 h, melanoma
Excerpt: as §1

NCI/ADR-RES = assay: NCI-60 cytotoxicity screen; format: cell-based; details: Homo sapiens, NCI-60, 48 h, ovarian
Excerpt: as §1

OVCAR-3 = assay: NCI-60 cytotoxicity screen; format: cell-based; details: Homo sapiens, NCI-60, 48 h, ovarian
Excerpt: as §1

OVCAR-4 = assay: NCI-60 cytotoxicity screen; format: cell-based; details: Homo sapiens, NCI-60, 48 h, ovarian
Excerpt: as §1

OVCAR-8 = assay: NCI-60 cytotoxicity screen; format: cell-based; details: Homo sapiens, NCI-60, 48 h, ovarian
Excerpt: as §1

PC-3 = assay: NCI-60 cytotoxicity screen; format: cell-based; details: Homo sapiens, NCI-60, 48 h, prostate
Excerpt: as §1

RPMI-8226 = assay: NCI-60 cytotoxicity screen; format: cell-based; details: Homo sapiens, NCI-60, 48 h, leukaemia
Excerpt: as §1

RXF 393 = assay: NCI-60 cytotoxicity screen; format: cell-based; details: Homo sapiens, NCI-60, 48 h, renal
Excerpt: as §1

SF-268 = assay: NCI-60 cytotoxicity screen; format: cell-based; details: Homo sapiens, NCI-60, 48 h, CNS
Excerpt: as §1

SF-295 = assay: NCI-60 cytotoxicity screen; format: cell-based; details: Homo sapiens, NCI-60, 48 h, CNS
Excerpt: as §1

SF-539 = assay: NCI-60 cytotoxicity screen; format: cell-based; details: Homo sapiens, NCI-60, 48 h, CNS
Excerpt: as §1

SK-MEL-28 = assay: NCI-60 cytotoxicity screen; format: cell-based; details: Homo sapiens, NCI-60, 48 h, melanoma
Excerpt: as §1

SK-MEL-2 = assay: NCI-60 cytotoxicity screen; format: cell-based; details: Homo sapiens, NCI-60, 48 h, melanoma
Excerpt: as §1

SK-MEL-5 = assay: NCI-60 cytotoxicity screen; format: cell-based; details: Homo sapiens, NCI-60, 48 h, melanoma
Excerpt: as §1

SN12C = assay: NCI-60 cytotoxicity screen; format: cell-based; details: Homo sapiens, NCI-60, 48 h, renal
Excerpt: as §1

SNB-19 = assay: NCI-60 cytotoxicity screen; format: cell-based; details: Homo sapiens, NCI-60, 48 h, CNS
Excerpt: as §1

SNB-75 = assay: NCI-60 cytotoxicity screen; format: cell-based; details: Homo sapiens, NCI-60, 48 h, CNS
Excerpt: as §1

SR = assay: NCI-60 cytotoxicity screen; format: cell-based; details: Homo sapiens, NCI-60, 48 h, leukaemia
Excerpt: as §1

SW620 = assay: NCI-60 cytotoxicity screen; format: cell-based; details: Homo sapiens, SW-620; NCI-60, 48 h, colon
Excerpt: as §1

U251 = assay: NCI-60 cytotoxicity screen; format: cell-based; details: Homo sapiens, U-251; NCI-60, 48 h, CNS
Excerpt: as §1

UACC-62 = assay: NCI-60 cytotoxicity screen; format: cell-based; details: Homo sapiens, NCI-60, 48 h, melanoma
Excerpt: as §1

UO-31 = assay: NCI-60 cytotoxicity screen; format: cell-based; details: Homo sapiens, NCI-60, 48 h, renal
Excerpt: as §1

## C=C(CN1CCN(c2cccc(C(F)(F)F)c2)CC1)c1ccc(C(=O)Nc2ccccc2N)cc1 [Compound 4, N-(2-aminophenyl)-4–(3-(4–(3-(trifluoromethyl)phenyl)piperazin-1-yl)prop-1-en-2-yl)benzamide]
HeLa nuclear KDACs
  IC50: > 20 µM
  IC20: 5 ± 1.5 µM
786-0
  IC50: 1.1 µM
A549
  IC50: 1.48 µM
ACHN
  IC50: 0.92 µM
BT 549
  IC50: 0.33 µM
CAKI-1
  IC50: 0.63 µM
COLO205
  IC50: 3.45 µM
DU-145
  IC50: 1.36 µM
EKVX
  IC50: 2.92 µM
H23
  IC50: 3.72 µM
H460
  IC50: 1.56 µM
H522
  IC50: 6.14 µM
HCT116
  IC50: 1.14 µM
HCT15
  IC50: 0.48 µM
HL-60
  IC50: 0.12 µM
HOP-62
  IC50: 0.7 µM
HS 578 T
  IC50: 0.49 µM
IGROV-1
  IC50: 14.2 µM
KM12
  IC50: 0.49 µM
LOX IMVI
  IC50: 0.12 µM
M14
  IC50: 1.05 µM
MCF-7
  IC50: 1.24 µM
MDA-MB-435
  IC50: 0.14 µM
NCI/ADR-RES
  IC50: 0.11 µM
OVCAR-3
  IC50: 0.55 µM
OVCAR-4
  IC50: 3.94 µM
OVCAR-8
  IC50: 1.4 µM
PC-3
  IC50: 0.62 µM
RPMI-8226
  IC50: 0.32 µM
RXF 393
  IC50: 1.62 µM
SF-268
  IC50: 1.43 µM
SF-295
  IC50: 0.54 µM
SF-539
  IC50: 0.54 µM
SK-MEL-28
  IC50: 3.4 µM
SK-MEL-2
  IC50: 3.44 µM
SK-MEL-5
  IC50: 0.57 µM
SN12C
  IC50: 0.29 µM
SNB-19
  IC50: 4.1 µM
SNB-75
  IC50: 0.01 µM
SR
  IC50: 0.02 µM
SW620
  IC50: 1.28 µM
U251
  IC50: 1.17 µM
UACC-62
  IC50: 0.41 µM
UO-31
  IC50: 2.39 µM

## C=C(CN1CCN(c2ccc(C(F)(F)F)cc2)CC1)c1ccc(C(=O)Nc2ccccc2N)cc1 [Compound 5, N-(2-aminophenyl)-4–(3-(4–(4-(trifluoromethyl)phenyl)piperazin-1-yl)prop-1-en-2-yl)benzamide]
HeLa nuclear KDACs
  IC50: > 20 µM
  IC20: 5.8 ± 1.8 µM
786-0
  IC50: 2.85 µM
A549
  IC50: 6.43 µM
ACHN
  IC50: 9.64 µM
BT 549
  IC50: 6.92 µM
CAKI-1
  IC50: 6.08 µM
COLO205
  IC50: > 100 µM
DU-145
  IC50: 21 µM
EKVX
  IC50: 12.4 µM
H23
  IC50: 9.48 µM
H460
  IC50: 3.44 µM
H522
  IC50: 1.85 µM
HCT116
  IC50: 11.4 µM
HCT15
  IC50: > 100 µM
HL-60
  IC50: 0.08 µM
HOP-62
  IC50: 8.38 µM
HS 578 T
  IC50: 22.5 µM
IGROV-1
  IC50: 18.2 µM
KM12
  IC50: 7.64 µM
LOX IMVI
  IC50: 11.1 µM
M14
  IC50: 90.6 µM
MCF-7
  IC50: 10.9 µM
MDA-MB-435
  IC50: 25.2 µM
NCI/ADR-RES
  IC50: 3.37 µM
OVCAR-3
  IC50: 12 µM
OVCAR-4
  IC50: 5.68 µM
OVCAR-8
  IC50: 6.95 µM
PC-3
  IC50: 1.29 µM
RPMI-8226
  IC50: 0.4 µM
RXF 393
  IC50: 1.97 µM
SF-268
  IC50: 6.78 µM
SF-295
  IC50: 10.8 µM
SF-539
  IC50: 8.15 µM
SK-MEL-28
  IC50: > 100 µM
SK-MEL-2
  IC50: > 100 µM
SK-MEL-5
  IC50: 4.43 µM
SN12C
  IC50: 6.37 µM
SNB-19
  IC50: 12.6 µM
SNB-75
  IC50: 12.5 µM
SR
  IC50: 1.1 µM
SW620
  IC50: 78.9 µM
U251
  IC50: 6.25 µM
UACC-62
  IC50: 23 µM
UO-31
  IC50: 0.97 µM
